Measured values from patent US8449896B2, “Pharmaceutical composition having improved solubility” (Daiichi Sankyo Company, Limited, priority 2009, dated 2013).

Experiment: solubility of compound I in aqueous solutions
Type: physicochemical

CN1CCc2nc(C(=O)N[C@@H]3C[C@@H](C(=O)N(C)C)CC[C@@H]3NC(=O)C(=O)Nc3ccc(Cl)cn3)sc2C1 [compound I, N^1-(5-chloropyridin-2-yl)-N^2-((1S,2R,4S)-4-[(dimethylamino)carbonyl]-2-{[(5-methyl-4,5,6,7-tetrahydrothiazolo[5,4-c]pyridin-2-yl)carbonyl]amino}cyclohexyl)ethanediamide]
solubility in a neutral aqueous solution (neutral aqueous solution (e.g., a neutral buffer)): reduced solubility
solubility in a strongly acidic aqueous solution (strongly acidic aqueous solution): favorable solubility
